Results reported in ChEMBL document CHEMBL1147422, “Synthesis and antitumor activity of 10-substituted benzylidene anthrone” (2004).

Assays:
[1] = system: A549; assay: Inhibition ratio against A-549 cancer cell growth at a concentration of 10e-5 mol/L; type: functional, Homo sapiens
[2] = system: P388; assay: Inhibition ratio against P-388 cancer cell growth at a concentration of 10e-7 mol/L; type: functional, Mus musculus
[3] = system: A549; assay: Inhibition ratio against A-549 cancer cell growth at a concentration of 10e-4 mol/L; type: functional, Homo sapiens
[4] = system: A549; assay: Inhibition ratio against A-549 cancer cell growth at a concentration of 10e-7 mol/L; type: functional, Homo sapiens
[5] = system: A549; assay: Inhibition ratio against A-549 cancer cell growth at a concentration of 10e-8 mol/L; type: functional, Homo sapiens
[6] = system: P388; assay: Inhibition ratio against P-388 cancer cell growth at a concentration of 10e-6 mol/L; type: functional, Mus musculus
[7] = system: P388; assay: Inhibition ratio against P-388 cancer cell growth at a concentration of 10e-5 mol/L; type: functional, Mus musculus
[8] = system: P388; assay: Inhibition ratio against P-388 cancer cell growth at a concentration of 10e-4 mol/L; type: functional, Mus musculus
[9] = system: A549; assay: Inhibition ratio against A-549 cancer cell growth at a concentration of 10e-6 mol/L; type: functional, Homo sapiens
[10] = system: P388; assay: Inhibition ratio against P-388 cancer cell growth at a concentration of 10e-8 mol/L; type: functional, Mus musculus

## COc1ccc(C=C2c3ccccc3C(=O)c3ccccc32)cc1
[1]
  Ratio: 84.7
[2]
  Ratio: 64.3
[3]
  Ratio: 90
[4]
  Ratio: 85.4
[5]
  Ratio: 84.8
[6]
  Ratio: 76.5
[7]
  Ratio: 72.5
[8]
  Ratio: 76.7
[9]
  Ratio: 87
[10]
  Ratio: 75.5

## O=C1c2ccccc2C(=Cc2ccc(O)cc2)c2ccccc21
[1]
  Ratio: 87
[2]
  Ratio: 27.1
[3]
  Ratio: 92.9
[4]
  Ratio: 88.7
[5]
  Ratio: 60
[6]
  Ratio: 41.6
[7]
  Ratio: 72
[8]
  Ratio: 100
[9]
  Ratio: 87.2
[10]
  Ratio: 42.8

## COc1ccccc1C=C1c2ccccc2C(=O)c2ccccc21
[1]
  Ratio: 81.7
[2]
  Ratio: 47
[3]
  Ratio: 89.3
[4]
  Ratio: 86.8
[5]
  Ratio: 66.3
[6]
  Ratio: 55.4
[7]
  Ratio: 76.1
[8]
  Ratio: 82.2
[9]
  Ratio: 85.7
[10]
  Ratio: 32.7

## O=C1c2ccccc2C(=Cc2ccccc2Cl)c2ccccc21
[1]
  Ratio: 53
[2]
  Ratio: 0
[3]
  Ratio: 89.9
[4]
  Ratio: 6
[5]
  Ratio: 5.9
[6]
  Ratio: 0
[7]
  Ratio: 23.7
[8]
  Ratio: 58.4
[9]
  Ratio: 0.3
[10]
  Ratio: 0

## COc1cccc(C=C2c3ccccc3C(=O)c3ccccc32)c1
[1]
  Ratio: 92.5
[2]
  Ratio: 7.1
[3]
  Ratio: 95.8
[4]
  Ratio: 38.1
[5]
  Ratio: 6.2
[6]
  Ratio: 27.2
[7]
  Ratio: 48.2
[8]
  Ratio: 96
[9]
  Ratio: 25.1
[10]
  Ratio: 1

## Cc1cccc(C=C2c3ccccc3C(=O)c3ccccc32)c1
[1]
  Ratio: 18.2
[2]
  Ratio: 0
[3]
  Ratio: 93
[4]
  Ratio: 0
[5]
  Ratio: 0
[6]
  Ratio: 0
[7]
  Ratio: 7.2
[8]
  Ratio: 53.3
[9]
  Ratio: 0
[10]
  Ratio: 0

## O=C1c2ccccc2C(=Cc2ccccc2O)c2ccccc21
[1]
  Ratio: 94.8
[2]
  Ratio: 44.9
[3]
  Ratio: 96.3
[4]
  Ratio: 83
[5]
  Ratio: 85.2
[6]
  Ratio: 65.8
[7]
  Ratio: 88.2
[8]
  Ratio: 95.6
[9]
  Ratio: 89.3
[10]
  Ratio: 38.5

## O=C1c2ccccc2C(=Cc2ccc(Cl)cc2)c2ccccc21
[1]
  Ratio: 87.3
[2]
  Ratio: 2.8
[3]
  Ratio: 96
[4]
  Ratio: 33.6
[5]
  Ratio: 41.7
[6]
  Ratio: 3.9
[7]
  Ratio: 36
[8]
  Ratio: 70
[9]
  Ratio: 41.9
[10]
  Ratio: 4.4

## O=C1c2ccccc2C(=Cc2cccc([N+](=O)[O-])c2)c2ccccc21
[1]
  Ratio: 91.8
[2]
  Ratio: 22.1
[3]
  Ratio: 96
[4]
  Ratio: 7.7
[5]
  Ratio: 13.2
[6]
  Ratio: 23.9
[7]
  Ratio: 55.8
[8]
  Ratio: 89.8
[9]
  Ratio: 12.4
[10]
  Ratio: 30.7

## O=C1c2ccccc2C(=Cc2ccccc2)c2ccccc21
[1]
  Ratio: 79.9
[2]
  Ratio: 0
[3]
  Ratio: 95.4
[4]
  Ratio: 1
[5]
  Ratio: 4.4
[6]
  Ratio: 17.8
[7]
  Ratio: 56.2
[8]
  Ratio: 97.8
[9]
  Ratio: 9.8
[10]
  Ratio: 2.7

## COc1ccc(C=C2c3ccccc3C(=O)c3ccccc32)cc1OC
[1]
  Ratio: 92.8
[2]
  Ratio: 53.6
[3]
  Ratio: 95.7
[4]
  Ratio: 90.6
[5]
  Ratio: 81.7
[6]
  Ratio: 56
[7]
  Ratio: 80.2
[8]
  Ratio: 95.7
[9]
  Ratio: 87
[10]
  Ratio: 50.9

## Cc1ccccc1C=C1c2ccccc2C(=O)c2ccccc21
[1]
  Ratio: 84.8
[2]
  Ratio: 8
[3]
  Ratio: 90.9
[4]
  Ratio: 0
[5]
  Ratio: 5.7
[6]
  Ratio: 24.9
[7]
  Ratio: 42.4
[8]
  Ratio: 84.1
[9]
  Ratio: 18.5
[10]
  Ratio: 13.1

## O=C1c2ccccc2C(=Cc2cccc(Cl)c2)c2ccccc21
[1]
  Ratio: 92
[2]
  Ratio: 19.3
[3]
  Ratio: 97.1
[4]
  Ratio: 5.7
[5]
  Ratio: 12.5
[6]
  Ratio: 11.9
[7]
  Ratio: 39.4
[8]
  Ratio: 89.2
[9]
  Ratio: 62.9
[10]
  Ratio: 10.9

## Cc1ccc(C=C2c3ccccc3C(=O)c3ccccc32)cc1
[1]
  Ratio: 91.8
[2]
  Ratio: 49.3
[3]
  Ratio: 95.2
[4]
  Ratio: 92.7
[5]
  Ratio: 84.7
[6]
  Ratio: 48.6
[7]
  Ratio: 42.4
[8]
  Ratio: 69
[9]
  Ratio: 90
[10]
  Ratio: 56.5

## O=C1c2ccccc2C(=Cc2ccc(F)cc2)c2ccccc21
[1]
  Ratio: 88.2
[2]
  Ratio: 10.3
[3]
  Ratio: 96.8
[4]
  Ratio: 18.5
[5]
  Ratio: 49.2
[6]
  Ratio: 18.4
[7]
  Ratio: 31.4
[8]
  Ratio: 83.3
[9]
  Ratio: 56.5
[10]
  Ratio: 5.2
